*1 amine or outer side, *2 acyl side, *3 side chain or, on linkers, in order; H or OH if unused. Where a SMILES comes first, the peptide text is derived from it. Side-chain parts run from the residue outwards. [ ]: non-standard residue; d: D form. The star is where a group is joined. C20 diacid = O=C(O)CCCCCCCCCCCCCCCCCCC(=O)*; C18 diacid = O=C(O)CCCCCCCCCCCCCCCCC(=O)*; γGlu = O=C(O)[C@H](CCC(=O)[*:2])N[*:1]; αMeF = C[C@](N)(Cc1ccccc1)C(=O)O; 4Pal = N[C@@H](Cc1ccncc1)C(=O)O; αMeL = CC(C)C[C@](C)(N)C(=O)O; Orn = NCCC[C@H](N)C(=O)O; AEEA = NCCOCCOCC(=O)O; Aib = CC(C)(N)C(=O)O
What was measured:
human GIPR = molecular target: T1, human GIPR (Homo sapiens, UniProt P48546); experiment: [125I]-GIP binding, SPA with WGA beads, 0.1% bacitracin; details: geometric mean, read-out: hGIPR Ki
T1 construct: expressed in transfected cells; crude membranes
T1 sequence (P48546 22-466): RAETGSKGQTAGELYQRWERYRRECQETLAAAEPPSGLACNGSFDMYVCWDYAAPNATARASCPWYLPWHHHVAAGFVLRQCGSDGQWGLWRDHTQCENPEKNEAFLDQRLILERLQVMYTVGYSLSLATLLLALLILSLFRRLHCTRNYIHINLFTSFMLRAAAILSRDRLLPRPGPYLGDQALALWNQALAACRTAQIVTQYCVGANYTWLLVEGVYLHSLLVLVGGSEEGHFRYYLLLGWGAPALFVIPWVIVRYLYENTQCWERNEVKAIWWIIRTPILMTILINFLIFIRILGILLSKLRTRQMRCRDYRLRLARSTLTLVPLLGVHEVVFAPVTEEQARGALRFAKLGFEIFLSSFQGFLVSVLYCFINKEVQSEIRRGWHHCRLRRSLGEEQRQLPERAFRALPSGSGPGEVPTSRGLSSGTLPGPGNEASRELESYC
Experimental: Stably transfected cell lines are prepared by subcloning receptor cDNA into a pcDNA3 expression plasmid and transfected into human embryonic kidney (HEK) 293 (hGcgR and hGLP-1R) or Chinese Hamster Ovary (CHO) (hGIPR) cells followed by selection with Geneticin (hGLP-1R and hGIPR) or hygromycin B (hGcgR).
Two methods are used for the preparation of crude cell membranes.
Method 1: Frozen cell pellets are lysed on ice in hypotonic buffer containing 50 mM Tris HCl, pH 7.5, and Roche Complete™ Protease Inhibitors with EDTA. The cell suspension is disrupted using a glass Potter-Elvehjem homogenizer fitted with a Teflon® pestle for 25 strokes. The homogenate is centrifuged at 4° C. at 1100× g for 10 minutes. The supernatant is collected and stored on ice while the pellets are resuspended in homogenization buffer and rehomogenized as described above. The homogenate is centrifuged at 1100× g for 10 minutes. The second supernatant is combined with the first supernatant and centrifuged at 35000× g for 1 hour at 4° C. The resulting membrane pellet is resuspended in homogenization buffer containing protease inhibitors at approximately 1 to 3 mg/mL, quick frozen in liquid nitrogen and stored as aliquots in a −80° C. freezer until use.
Method 2: Frozen cell pellets are lysed on ice in hypotonic buffer containing 50 mM Tris HCl, pH 7.5, 1 mM MgCl2, Roche Complete™ EDTA-free Protease Inhibitors and 25 units/mL DNAse I (Invitrogen). The cell suspension is disrupted using a glass Potter-Elvehjem homogenizer fitted with a Teflon® pestle for 20 to 25 strokes. The homogenate is centrifuged at 4° C. at 1800× g for 15 minutes. The supernatant is collected and stored on ice while the pellets are resuspended in homogenization buffer (without DNAse I) and rehomogenized as described above. The homogenate is centrifuged at 1800× g for 15 minutes. The second supernatant is combined with the first supernatant and centrifuged an additional time at 1800× g for 15 minutes. The overall supernatant is then centrifuged at 25000× g for 30 minutes at 4° C. The resulting membrane pellet is resuspended in homogenization buffer (without DNAse I) containing protease inhibitors at approximately 1 to 3 mg/mL and stored as aliquots in a −80° C. freezer until use.
The binding buffer contains 25 mM HEPES, pH 7.4, 2.5 mM CaCl2), 1 mM MgCl2, 0.1% (w/v) bacitracin, 0.003% (w/v) TWEEN®-20, and Roche Complete™ Protease Inhibitors without EDTA. […] Plates are sealed and mixed on a plate shaker (setting 6) for 1 minute and read with a PerkinElmer Trilux MicroBeta® scintillation counter after 2.5 to 12 hours of incubation/settling time at room temperature.
Data are analyzed using four-parameter (curve maximum, curve minimum, IC50, Hill slope) nonlinear regression routines (Genedata Screener, version 12.0.4, Genedata AG, Basal, Switzerland). […] Values for Ki are reported as the geometric mean, with error expressed as the standard error of the mean (SEM) and n is equal to the number of independent replicates (determined in assays performed on different days). […] SEM is only calculated when […] or greater. Means are expressed as geometric means with the standard error of the mean (SEM) and the number of replicates (n) indicated in parentheses.

[1] = molecular target: T2, human glucose-dependent insulinotropic peptide receptor (GIPR) (Homo sapiens, UniProt P48546); experiment: cAMP functional assay (HTRF) in HEK293 cells in presence of 0.1% casein; type: cell-based; details: HEK293 cells expressing human GIPR, geometric mean, read-out: hGIPR cAMP Rel EC50 nM (SEM, n)
T2 construct: expressed in transfected cells; host or cells: HEK293
T2 sequence (P48546 22-466): T1 sequence (P48546 22-466)

Structure (SMILES) | Ki (human GIPR) [nM] | EC50 [1] [nM]
CC[C@H](C)[C@H](NC(=O)[C@H](CC(C)C)NC(=O)[C@@H](NC(=O)CNC(=O)[C@H](CCC(=O)O)NC(=O)C(C)(C)NC(=O)[C@@H](N)Cc1ccc(O)cc1)[C@@H](C)O)C(=O)N[C@@H](CO)C(=O)N[C@@H](CC(=O)O)C(=O)N[C@@H](Cc1ccc(O)cc1)C(=O)N[C@@H](CO)C(=O)N[C@H](C(=O)N[C@@](C)(CC(C)C)C(=O)N[C@@H](CC(C)C)C(=O)N[C@@H](CC(=O)O)C(=O)N[C@@H](CCCCN)C(=O)N[C@@H](CCCCNC(=O)COCCOCCNC(=O)COCCOCCNC(=O)CC[C@H](NC(=O)CCCCCCCCCCCCCCCCCCC(=O)O)C(=O)O)C(=O)N[C@@H](Cc1c[nH]cn1)C(=O)N[C@@H](CCC(N)=O)C(=O)NC(C)(C)C(=O)N[C@@H](CCC(=O)O)C(=O)N[C@@H](Cc1ccccc1)C(=O)N[C@H](C(=O)N[C@@H](CCC(=O)O)C(=O)N[C@@H](Cc1ccc(O)cc1)C(=O)N[C@@H](CC(C)C)C(=O)N[C@@H](CC(C)C)C(=O)N[C@@H](CCC(=O)O)C(=O)NCC(=O)NCC(=O)N1CCC[C@H]1C(=O)N[C@@H](CO)C(=O)N[C@@H](CO)C(=O)NCC(=O)N[C@@H](C)C(=O)N1CCC[C@H]1C(=O)N1CCC[C@H]1C(=O)N1CCC[C@H]1C(=O)N[C@@H](CO)C(N)=O)C(C)C)[C@@H](C)CC [Example 73] (H-Y[Aib]EGTLISDYSI[αMeL]LDKK([AEEA-AEEA-γGlu-C20 diacid])HQ[Aib]EFVEYLLEGGPSSGAPPPS-NH2) | 0.036 | 0.0151
CC[C@H](C)[C@H](NC(=O)[C@H](Cc1ccccc1)NC(=O)[C@@H](NC(=O)CNC(=O)[C@H](CCC(=O)O)NC(=O)C(C)(C)NC(=O)[C@@H](N)Cc1ccc(O)cc1)[C@@H](C)O)C(=O)N[C@@H](CO)C(=O)N[C@@H](CC(=O)O)C(=O)N[C@@H](Cc1ccc(O)cc1)C(=O)N[C@@H](CO)C(=O)N[C@H](C(=O)N[C@@](C)(CC(C)C)C(=O)N[C@@H](CC(C)C)C(=O)N[C@@H](CC(=O)O)C(=O)N[C@@H](CCCN)C(=O)N[C@@H](CCCCNC(=O)COCCOCCNC(=O)COCCOCCNC(=O)CC[C@H](NC(=O)CCCCCCCCCCCCCCCCCCC(=O)O)C(=O)O)C(=O)N[C@@H](Cc1c[nH]cn1)C(=O)N[C@@H](CCC(N)=O)C(=O)NC(C)(C)C(=O)N[C@@H](CC(=O)O)C(=O)N[C@@H](Cc1ccccc1)C(=O)N[C@H](C(=O)N[C@@H](CCC(=O)O)C(=O)N[C@@H](Cc1ccncc1)C(=O)N[C@@H](CC(C)C)C(=O)N[C@@H](CC(C)C)C(=O)N[C@@H](CCC(=O)O)C(=O)N[C@@H](CCC(N)=O)C(=O)NCC(=O)N1CCC[C@H]1C(=O)N[C@@H](CO)C(=O)N[C@@H](CO)C(=O)NCC(=O)N[C@@H](C)C(=O)N1CCC[C@H]1C(=O)N1CCC[C@H]1C(=O)N1CCC[C@H]1C(=O)N[C@@H](CO)C(N)=O)C(C)C)[C@@H](C)CC [Example 81] (H-Y[Aib]EGTFISDYSI[αMeL]LD[Orn]K([AEEA-AEEA-γGlu-C20 diacid])HQ[Aib]DFVE[4Pal]LLEQGPSSGAPPPS-NH2) | 0.0374 | 0.0282
CC[C@H](C)[C@H](NC(=O)[C@H](Cc1ccccc1)NC(=O)[C@@H](NC(=O)CNC(=O)[C@H](CCC(=O)O)NC(=O)C(C)(C)NC(=O)[C@@H](N)Cc1ccc(O)cc1)[C@@H](C)O)C(=O)N[C@@H](CO)C(=O)N[C@@H](CC(=O)O)C(=O)N[C@@H](Cc1ccc(O)cc1)C(=O)N[C@@H](CO)C(=O)N[C@H](C(=O)N[C@@](C)(CC(C)C)C(=O)N[C@@H](CC(C)C)C(=O)N[C@@H](CC(=O)O)C(=O)N[C@@H](CCCN)C(=O)N[C@@H](CCCCNC(=O)COCCOCCNC(=O)COCCOCCNC(=O)CC[C@H](NC(=O)CCCCCCCCCCCCCCCCCCC(=O)O)C(=O)O)C(=O)N[C@@H](Cc1c[nH]cn1)C(=O)N[C@@H](CCC(N)=O)C(=O)NC(C)(C)C(=O)N[C@@H](CC(=O)O)C(=O)N[C@@H](Cc1ccccc1)C(=O)N[C@H](C(=O)N[C@@H](CCC(=O)O)C(=O)N[C@@H](Cc1ccncc1)C(=O)N[C@@H](CC(C)C)C(=O)N[C@@H](CC(C)C)C(=O)N[C@@H](CCC(=O)O)C(=O)N[C@H](C(=O)NCC(=O)N1CCC[C@H]1C(=O)N[C@@H](CO)C(=O)N[C@@H](CO)C(=O)NCC(=O)N[C@@H](C)C(=O)N1CCC[C@H]1C(=O)N1CCC[C@H]1C(=O)N1CCC[C@H]1C(=O)N[C@@H](CO)C(N)=O)[C@@H](C)O)C(C)C)[C@@H](C)CC [Example 80] (H-Y[Aib]EGTFISDYSI[αMeL]LD[Orn]K([AEEA-AEEA-γGlu-C20 diacid])HQ[Aib]DFVE[4Pal]LLETGPSSGAPPPS-NH2) | 0.0828 | 0.0777
CC[C@H](C)[C@H](NC(=O)[C@H](CO)NC(=O)[C@H](Cc1ccc(O)cc1)NC(=O)[C@H](CC(=O)O)NC(=O)[C@H](CO)NC(=O)[C@@H](NC(=O)[C@](C)(Cc1ccccc1)NC(=O)[C@@H](NC(=O)CNC(=O)[C@H](CCC(=O)O)NC(=O)C(C)(C)NC(=O)[C@@H](N)Cc1ccc(O)cc1)[C@@H](C)O)[C@@H](C)CC)C(=O)N[C@@H](C)C(=O)N[C@@H](CC(C)C)C(=O)N[C@@H](CC(=O)O)C(=O)N[C@@H](CCCCN)C(=O)N[C@@H](CCCCNC(=O)COCCOCCNC(=O)COCCOCCNC(=O)CC[C@H](NC(=O)CCCCCCCCCCCCCCCCC(=O)O)C(=O)O)C(=O)N[C@@H](Cc1c[nH]cn1)C(=O)N[C@@H](CCC(N)=O)C(=O)NC(C)(C)C(=O)N[C@@H](CC(=O)O)C(=O)N[C@@H](Cc1ccccc1)C(=O)N[C@H](C(=O)N[C@@H](CCC(=O)O)C(=O)N[C@@H](Cc1ccncc1)C(=O)N[C@@H](CC(C)C)C(=O)N[C@@H](CC(C)C)C(=O)N[C@@H](C)C(=O)NCC(=O)NCC(=O)N1CCC[C@H]1C(=O)N[C@@H](CO)C(=O)N[C@@H](CO)C(=O)NCC(=O)N[C@@H](C)C(=O)N1CCC[C@H]1C(=O)N1CCC[C@H]1C(=O)N1CCC[C@H]1C(=O)N[C@@H](CO)C(N)=O)C(C)C [Example 23] (H-Y[Aib]EGT[αMeF]ISDYSIALDKK([AEEA-AEEA-γGlu-C18 diacid])HQ[Aib]DFVE[4Pal]LLAGGPSSGAPPPS-NH2) | 0.0341 | 0.0192
CC[C@H](C)[C@H](NC(=O)[C@H](CO)NC(=O)[C@H](Cc1ccc(O)cc1)NC(=O)[C@H](CC(=O)O)NC(=O)[C@H](CO)NC(=O)[C@@H](NC(=O)[C@](C)(Cc1ccccc1)NC(=O)[C@@H](NC(=O)CNC(=O)[C@H](CCC(=O)O)NC(=O)C(C)(C)NC(=O)[C@@H](N)Cc1ccc(O)cc1)[C@@H](C)O)[C@@H](C)CC)C(=O)N[C@@H](C)C(=O)N[C@@H](CC(C)C)C(=O)N[C@@H](CC(=O)O)C(=O)N[C@@H](CCCCN)C(=O)N[C@H](C(=O)N[C@@H](Cc1c[nH]cn1)C(=O)N[C@@H](CCC(N)=O)C(=O)NC(C)(C)C(=O)N[C@@H](CCC(=O)O)C(=O)N[C@@H](Cc1ccccc1)C(=O)N[C@H](C(=O)N[C@@H](CC(N)=O)C(=O)N[C@@H](Cc1ccc(O)cc1)C(=O)N[C@@H](CCCCNC(=O)COCCOCCNC(=O)COCCOCCNC(=O)CC[C@H](NC(=O)CCCCCCCCCCCCCCCCCCC(=O)O)C(=O)O)C(=O)N[C@@H](CC(C)C)C(=O)N[C@@H](C)C(=O)NCC(=O)NCC(=O)N1CCC[C@H]1C(=O)N[C@@H](CO)C(=O)N[C@@H](CO)C(=O)NCC(=O)N[C@@H](C)C(=O)N1CCC[C@H]1C(=O)N1CCC[C@H]1C(=O)N1CCC[C@H]1C(=O)N[C@@H](CO)C(N)=O)C(C)C)[C@@H](C)CC [Example 97] (H-Y[Aib]EGT[αMeF]ISDYSIALDKIHQ[Aib]EFVNYK([AEEA-AEEA-γGlu-C20 diacid])LAGGPSSGAPPPS-NH2) | 0.0249 | 0.009

Source: patent US12723063B2, “GIPR-agonist compounds” (Eli Lilly and Company, priority 2019, dated 2026)
